From ChEMBL document CHEMBL1142342, “Lignans from the fruits of Forsythia suspensa” (Bioorg Med Chem Lett, 2008) come the findings set out here.

Activity calls are given as the source filed them. The calls are words filed in the database; no cut-off is given here.

The test system of series [1] is LLC-PK1. Nature of the series: Protective effect against 3-morpholinosydnonimine-induced cell death in pig LLC-PK1 cells assessed as viability at 50 uM after 1 hr by MTT assay. The settings on record: Sus scrofa, LLC-PK1, 1 h; read-out: Activity. It is filed as functional.
Series [2] has as its system LLC-PK1. Kind of series: Cytotoxicity against pig LLC-PK1 cells. It is filed as cell-based, Sus scrofa.
Series [3] relates to LLC-PK1. Kind of series: Protective effect against 3-morpholinosydnonimine-induced cell death in pig LLC-PK1 cells after 1 hr by MTT assay. It is filed as functional, cell-based. The conditions noted are these: Sus scrofa. (In general: Formazan colour is commonly taken as a measure of viable cells.)
In series [4] the test system is LLC-PK1. Nature of the series: Inhibition of 3-morpholinosdynonimine-induced LDH release in pig LLC-PK1 cells at 10 uM after 24 hrs. It is filed as functional, cell-based. The settings on record: Sus scrofa. For orientation: LDH in the medium is a marker of cell lysis.
The subject of series [5] is LLC-PK1. Kind of series: Inhibition of 3-morpholinosydnonimine-induced LDH release in pig LLC-PK1 cells at 50 uM after 24 hrs. It is filed as functional, cell-based. The conditions noted are these: Sus scrofa.
The test system of series [6] is LLC-PK1. Nature of the series: Inhibition of 3-morpholinosydnonimine-induced LDH release in pig LLC-PK1 cells after 24 hrs. It is filed as functional, cell-based. The conditions noted are these: Sus scrofa.

Turning to `COc1cc(O)cc([C@H]2OC[C@H](C(=O)c3ccc(O)c(OC)c3)[C@@H]2CO)c1` [FORSYTHIALAN A], in the series with LLC-PK1 [1], the viability at 50 µM came out at 95%. Further, the results for the Activity result in the series with LLC-PK1 [2] and with LLC-PK1 [3] were “Non-toxic” and “Dose-dependent effect”, respectively. Further, the outcome with LLC-PK1 [4] and in the series with LLC-PK1 [5] was Active.

With `COc1cc(O)cc([C@H]2OC[C@H](C(=O)c3ccc(OC)c(OC)c3)[C@@H]2CO)c1` [FORSYTHIALAN B], the viability at 50 µM with LLC-PK1 [1] turned out to be 85%. Further, the Activity result in the series with LLC-PK1 [2] is “Non-toxic”; in the series on LLC-PK1 [3], “Dose-dependent effect”. Moreover, the result with LLC-PK1 [6] was Active.
